According to US10011573B2, “Human androgen receptor DNA-binding domain (DBD) compounds as therapeutics and methods for their use” (The University of British Columbia, priority 2014, dated 2018):
Numbering of substitutions follows the chain as printed. Entries after “also recorded” stand apart in the source; their conditions may differ. Like-named read-outs stand apart in the source and are kept apart here.

What was measured:
AR-V7 = molecular target: T1, AR-V7 (Homo sapiens, UniProt P10275); test: ARR3tk-luciferase reporter assay in PC3 cells, splice variant AR-V7; type: cell-based
T1 construct: expressed in transfected cells; host or cells: PC3
Description: Full-length human AR (hARWT) or splice variant (AR-V7) was encoded on a pcDNA3.1 expression plasmid.

endogenous wild type AR = test: ARR3tk-luciferase assay in R1-AD1 cells; type: cell-based, human
YFP-AR = molecular target: T2, YFP-AR (Homo sapiens, UniProt P10275); test: Confocal microscopy of YFP-AR nuclear localization in PC3 cells; type: cell-based
T2 construct: plasmids encoding YFP-tagged full-length AR (yellow fluorescent protein, YFP-AR); expressed in transfected cells; host or cells: PC3
T2 sequence (P10275 1-920): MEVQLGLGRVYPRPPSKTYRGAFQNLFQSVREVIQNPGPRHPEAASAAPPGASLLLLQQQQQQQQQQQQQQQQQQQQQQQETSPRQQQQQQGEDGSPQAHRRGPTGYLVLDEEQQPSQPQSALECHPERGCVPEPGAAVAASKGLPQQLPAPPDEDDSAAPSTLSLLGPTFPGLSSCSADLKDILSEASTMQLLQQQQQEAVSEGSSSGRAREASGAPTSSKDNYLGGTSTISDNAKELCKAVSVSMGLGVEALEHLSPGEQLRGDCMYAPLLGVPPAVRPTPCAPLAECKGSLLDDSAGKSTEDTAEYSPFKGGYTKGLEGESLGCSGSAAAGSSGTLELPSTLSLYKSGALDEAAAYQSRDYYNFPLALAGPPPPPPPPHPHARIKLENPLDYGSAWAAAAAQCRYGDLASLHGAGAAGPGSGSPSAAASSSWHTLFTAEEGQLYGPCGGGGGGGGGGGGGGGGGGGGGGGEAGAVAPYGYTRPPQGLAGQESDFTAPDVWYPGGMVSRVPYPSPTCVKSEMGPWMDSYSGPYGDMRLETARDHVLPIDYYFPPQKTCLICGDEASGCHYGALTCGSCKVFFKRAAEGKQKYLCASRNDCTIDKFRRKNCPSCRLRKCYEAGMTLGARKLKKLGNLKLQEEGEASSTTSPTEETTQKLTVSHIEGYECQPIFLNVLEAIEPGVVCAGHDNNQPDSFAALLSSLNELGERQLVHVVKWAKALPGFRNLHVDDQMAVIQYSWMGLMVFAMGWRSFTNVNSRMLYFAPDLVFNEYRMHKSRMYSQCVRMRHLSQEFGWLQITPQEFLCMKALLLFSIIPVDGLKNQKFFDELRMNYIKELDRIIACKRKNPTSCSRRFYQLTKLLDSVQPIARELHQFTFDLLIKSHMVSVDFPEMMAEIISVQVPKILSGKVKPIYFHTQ
Method: Transfection of YFP-AR or YFP-V7 plasmids (100 ng per well) was performed using TT20 (3 μl) for 48 h. […] After aspiration of the media, cells were washed once with PBS and fixed in 4% paraformaldehyde overnight at 4° C., followed by mounting on charged cover slides using DAPI mount (Vector Laboratories).

AR Y594A mutant = AR Y594A mutant (Homo sapiens, UniProt P10275, Y594A); test: ARR3tk-luciferase reporter assay in PC3 cells, AR Y594A
Method: (§1) Cells were then treated with compounds at various concentrations and 0.1 nMR1881 (in 100% ethanol) for 24 h. […] Cell lysis was carried out with 60 μl of 1X passive lysis buffer/well (Promega™)
(§2) 20 μl of cell lysate from each well were mixed with 50 μl of luciferase assay reagent (Promega™), and luminescence was recorded on a TECAN™ M200pro plate reader. Luciferase assays with splice variant AR were performed the same way but with only 5 ng of pcDNA3.1 AR-V7 (to limit the high level of AR-V7 expression) and no R1881.

AR Q592A mutant = AR Q592A mutant (Homo sapiens, UniProt P10275, Q592A); test: ARR3tk-luciferase reporter assay in PC3 cells, AR Q592A
Method: as §1, §2

androgen receptor (AR) = molecular target: T3, androgen receptor (AR) (Homo sapiens, UniProt P10275, T878A); test: eGFP cellular AR transcription assay (LNCaP eGFP cells, LN-ARR2PB-eGFP)
T3 sequence (P10275 1-920 T878A): T2 sequence (P10275 1-920) with T878A

[1] = eGFP IC50, LNCaP eGFP cells, 0.1 nM R1881

T1 sequence (P10275 1-644 isoform P10275-3): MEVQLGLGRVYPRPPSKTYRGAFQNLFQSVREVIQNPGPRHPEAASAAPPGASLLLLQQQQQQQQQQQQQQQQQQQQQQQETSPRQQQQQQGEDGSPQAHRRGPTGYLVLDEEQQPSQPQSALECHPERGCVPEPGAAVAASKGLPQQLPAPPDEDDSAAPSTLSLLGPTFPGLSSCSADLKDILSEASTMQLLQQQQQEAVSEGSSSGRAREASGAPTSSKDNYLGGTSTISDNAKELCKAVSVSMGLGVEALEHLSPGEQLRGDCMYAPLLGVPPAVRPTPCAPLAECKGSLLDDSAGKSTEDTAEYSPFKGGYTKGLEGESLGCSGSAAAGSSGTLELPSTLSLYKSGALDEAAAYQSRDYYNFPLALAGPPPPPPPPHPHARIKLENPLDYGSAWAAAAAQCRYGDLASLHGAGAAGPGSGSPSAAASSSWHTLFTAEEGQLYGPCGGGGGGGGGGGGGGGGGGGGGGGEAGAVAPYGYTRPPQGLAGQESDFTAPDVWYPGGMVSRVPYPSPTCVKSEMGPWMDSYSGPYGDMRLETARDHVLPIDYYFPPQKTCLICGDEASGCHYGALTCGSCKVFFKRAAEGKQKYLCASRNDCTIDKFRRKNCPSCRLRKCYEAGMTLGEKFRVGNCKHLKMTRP
Sequence of AR Y594A mutant (P10275 whole entry Y594A): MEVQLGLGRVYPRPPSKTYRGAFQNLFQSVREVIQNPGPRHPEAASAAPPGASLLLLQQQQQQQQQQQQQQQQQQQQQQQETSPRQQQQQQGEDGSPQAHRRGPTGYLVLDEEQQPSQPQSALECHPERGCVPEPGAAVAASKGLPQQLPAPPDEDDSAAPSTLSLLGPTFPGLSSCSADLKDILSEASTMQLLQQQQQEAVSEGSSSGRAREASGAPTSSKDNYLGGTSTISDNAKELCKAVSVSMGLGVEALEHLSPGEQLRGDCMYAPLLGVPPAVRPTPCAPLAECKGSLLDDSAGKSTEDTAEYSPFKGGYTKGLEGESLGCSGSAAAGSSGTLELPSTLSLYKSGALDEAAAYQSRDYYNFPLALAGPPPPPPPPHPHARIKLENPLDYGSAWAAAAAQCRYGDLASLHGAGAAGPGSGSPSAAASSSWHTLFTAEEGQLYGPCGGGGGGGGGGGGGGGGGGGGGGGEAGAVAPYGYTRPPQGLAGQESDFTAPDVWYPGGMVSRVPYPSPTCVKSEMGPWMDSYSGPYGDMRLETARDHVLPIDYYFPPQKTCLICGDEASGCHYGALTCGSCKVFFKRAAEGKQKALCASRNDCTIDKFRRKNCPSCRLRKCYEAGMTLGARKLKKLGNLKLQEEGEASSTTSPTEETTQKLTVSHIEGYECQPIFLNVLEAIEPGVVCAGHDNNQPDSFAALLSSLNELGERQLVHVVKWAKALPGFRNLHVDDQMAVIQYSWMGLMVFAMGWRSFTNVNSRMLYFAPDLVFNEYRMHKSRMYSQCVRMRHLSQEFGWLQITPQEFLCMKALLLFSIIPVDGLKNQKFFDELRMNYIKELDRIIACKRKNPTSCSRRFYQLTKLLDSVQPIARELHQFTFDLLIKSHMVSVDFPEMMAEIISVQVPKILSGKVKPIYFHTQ
Sequence of AR Q592A mutant (P10275 whole entry Q592A): as the sequence (P10275 whole entry Y594A) above, with Q592A, A594Y counted along it

| SMILES | inhibition of AR-V7 transcriptional activity (AR-V7; PC3 cells, no R1881) | inhibition of wild type AR transcriptional activity (endogenous wild type AR) | R1881-stimulated nuclear localization of YFP-AR (YFP-AR; 10 nM R1881, 25 μM compound, 6 h) | nuclear localization of YFP-AR in the absence of R1881 (YFP-AR; 25 μM compound) | IC50 (AR Y594A mutant) [nM] | IC50 (AR Q592A mutant) [nM] | fold improved activities compared to compound 6 (14228) (androgen receptor (AR)) [fold] | IC50 (androgen receptor (AR); eGFP IC50 (μM), Series 1) [µM] | IC50 (androgen receptor (AR); [1]) [µM] | inhibition of AR-V7 transcriptional activity (AR-V7) | R1881-stimulated nuclear localization of YFP-AR (YFP-AR) | nuclear localization of YFP-AR in the absence of R1881 (YFP-AR) | inhibition at 3 µM (androgen receptor (AR); LNCaP, read-out: % Inhibition (3 μM)) [%] |
| --- | --- | --- | --- | --- | --- | --- | --- | --- | --- | --- | --- | --- | --- |
| Brc1ncn(-c2csc(N3CCOCC3)n2)c1Br [Compound 14449] | reduced with increasing concentrations; also recorded: inhibit the transcription of AR-V7 in a concentration-dependent manner | could inhibit | did not prevent R1881-stimulated nuclear localization | could not stimulate any nuclear localization | 3000 to 6000 | 3000 to 6000 | 2 | 0.1 | 0.12 ± 0.01 |  |  |  |  |
| c1ccc(-c2csc(N3CCOCC3)n2)cc1 [Compound 14228, 4-(4-phenylthiazol-2-yl)morpholine] |  | could inhibit |  |  | 3000 to 6000 | 3000 to 6000 |  | 0.33 | 0.274 | reduced with increasing concentrations; also recorded: inhibit the transcription of AR-V7 in a concentration-dependent manner | did not prevent R1881-stimulated nuclear localization | could not stimulate any nuclear localization | 110 |
